Results from US20240140933A1, “OXOINDOLINE COMPOUND FOR THE TREATMENT OF INFLAMMATORY DISEASES OR CANCER” (Hoffmann-La Roche Inc., priority 2021, published 2024).

Biological target: PDHK1 (Homo sapiens (Human), UniProt Q15118)
Experiment: PDHK1 enzymatic assay (AlphaScreen, phosphorylation of PDHE1 S293)
Format: biochemical
Details: 1 nM PDHK1, 25 nM PDHE1, 20 μM ATP, 30° C. for 45 minutes
Text: Pyruvate dehydrogenase complex (PDHc) is an enzyme that catalyzes the reaction of pyruvate and a lipoamide to give the acetylated dihydrolipoamide and carbon dioxide. PDHc has three subunits E1, E2 and E3. E1 has 3 serine phosphorylation sites S293, S232, S300. If E1 was phosphorylated, PDH will be inactivated. PDHK can phosphorylate PDH protein (also named PDHE1) in PDH complex (PDC) to inactivate it.

Sequence of PDHK1 (Q15118 29-436): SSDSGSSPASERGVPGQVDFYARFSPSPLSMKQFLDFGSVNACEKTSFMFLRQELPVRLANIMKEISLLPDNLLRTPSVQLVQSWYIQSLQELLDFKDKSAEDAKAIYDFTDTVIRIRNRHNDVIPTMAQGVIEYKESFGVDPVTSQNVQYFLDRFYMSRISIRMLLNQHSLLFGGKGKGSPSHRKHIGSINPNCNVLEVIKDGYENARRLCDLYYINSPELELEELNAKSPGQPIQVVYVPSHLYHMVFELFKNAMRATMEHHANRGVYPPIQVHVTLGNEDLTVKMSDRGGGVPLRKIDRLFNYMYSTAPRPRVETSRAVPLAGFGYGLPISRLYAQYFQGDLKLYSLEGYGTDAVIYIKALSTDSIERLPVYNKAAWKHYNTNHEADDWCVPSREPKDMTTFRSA

Compound	Enzymatic IC50 against PDHK1
CCNc1cc(F)cc2c1NC(=O)C2(C)N1CCC[C@@H](Cc2ccc(C(N)=O)cc2)C1 (stereo partly drawn) [Example 6, 4-[[(3S)-1-[7-(ethylamino)-5-fluoro-3-methyl-2-oxo-indolin-3-yl]-3-piperidyl]methyl]benzamide]	0.143 µg/mL
CCNc1cc(F)cc2c1NC(=O)C2(C)N1CCC[C@@H](Cc2ccc(C(=O)O)cc2)C1 (stereo partly drawn) [Example 5, 4-[[(3S)-1-[7-(ethylamino)-5-fluoro-3-methyl-2-oxo-indolin-3-yl]-3-piperidyl]methyl]benzoic acid]	0.046 µg/mL
CCNc1cc(F)cc2c1NC(=O)C2(C)N1CCCC(NC(=O)C2CC3(C2)CN(C#N)C3)C1 (stereo in doubt) [Example 37, 2-cyano-N-[(3R)-1-[7-(ethylamino)-5-fluoro-3-methyl-2-oxo-indolin-3-yl]-3-piperidyl]-2-azaspiro[3.3]heptane-6-carboxamide]	0.039 µg/mL
CCNc1cc(F)cc2c1NC(=O)C2(C)N1CCC[C@@H](NC(=O)c2cccc(S(=O)(=O)F)c2)C1 (stereo partly drawn) [Example 42, 3-[[(3R)-1-[7-(ethylamino)-5-fluoro-3-methyl-2-oxo-indolin-3-yl]-3-piperidyl]carbamoyl]benzenesulfonyl fluoride]	0.020 µg/mL
CCNc1cc(F)cc2c1NC(=O)[C@]2(C)N1CC[C@H](c2ccccc2)[C@H](C(N)=O)C1 [Example 63A, (3S,4S)-1-[(3R)-7-(ethylamino)-5-fluoro-3-methyl-2-oxo-indolin-3-yl]-4-phenyl-piperidine-3-carboxamide]	0.009 µg/mL
CCNc1cc(F)cc2c1NC(=O)C2(C)N1CCC[C@@H](Nc2ccc(CO)nc2)C1 (stereo partly drawn) [Example 18, 7-(ethylamino)-5-fluoro-3-[(3R)-3-[[6-(hydroxymethyl)-3-pyridyl]amino]-1-piperidyl]-3-methyl-indolin-2-one]	0.059 µg/mL
CCNc1cc(F)cc2c1NC(=O)C2(C)N1CC[C@H](F)[C@@H](Nc2ccc(C#N)nc2)C1 (stereo partly drawn) [Example 48, 5-[[(3S,4S)-1-[7-(ethylamino)-5-fluoro-3-methyl-2-oxo-indolin-3-yl]-4-fluoro-3-piperidyl]amino]pyridine-2-carbonitrile]	0.025 µg/mL
CCNc1cc(F)cc2c1NC(=O)C2(C)N1CCC[C@@H](Nc2ccc(C(=O)O)nc2)C1 (stereo partly drawn) [Example 11, 5-[[(3R)-1-[7-(ethylamino)-5-fluoro-3-methyl-2-oxo-indolin-3-yl]-3-piperidyl]amino]pyridine-2-carboxylic acid]	0.020 µg/mL
CCNc1cc(F)cc2c1NC(=O)C2(C)N1C[C@@H](F)C[C@@H](Nc2ccc(C#N)nc2)C1 (stereo partly drawn) [Example 46, 5-[[(3R,5S)-1-[7-(ethylamino)-5-fluoro-3-methyl-2-oxo-indolin-3-yl]-5-fluoro-3-piperidyl]amino]pyridine-2-carbonitrile]	0.012 µg/mL
CCNc1cc(F)cc2c1NC(=O)C2(C)N1CC[C@H](c2ccccc2)[C@@H](NC(=O)C2CN(C#N)C2)C1 (stereo partly drawn) [Example 54, 1-cyano-N-[(3R,4R)-1-[7-(ethylamino)-5-fluoro-3-methyl-2-oxo-indolin-3-yl]-4-phenyl-3-piperidyl]azetidine-3-carboxamide]	0.009 µg/mL
CCNc1cc(F)cc2c1NC(=O)C2(C)N1CCC[C@@H](Nc2cccc(S(=O)(=O)F)c2)C1 (stereo partly drawn) [Example 27, 3-[[(3R)-1-[7-(ethylamino)-5-fluoro-3-methyl-2-oxo-indolin-3-yl]-3-piperidyl]amino]benzenesulfonyl fluoride]	0.086 µg/mL
CCNc1cc(F)cc2c1NC(=O)C2(C)N1CCC[C@@H](NC(=O)C2CCN(C#N)CC2)C1 (stereo partly drawn) [Example 38, 1-cyano-N-[(3R)-1-[7-(ethylamino)-5-fluoro-3-methyl-2-oxo-indolin-3-yl]-3-piperidyl]piperidine-4-carboxamide]	0.026 µg/mL
CCNc1cc(F)cc2c1NC(=O)C2(C)N1CCC[C@@H](Nc2cnc(C#N)c(Cl)c2)C1 (stereo partly drawn) [Example 22, 3-chloro-5-[[(3R)-1-[7-(ethylamino)-5-fluoro-3-methyl-2-oxo-indolin-3-yl]-3-piperidyl]amino]pyridine-2-carbonitrile]	0.024 µg/mL
CCNc1cc(F)cc2c1NC(=O)C2(C)N1CC[C@H](c2ccccc2)[C@@H](NC(C)=O)C1 (stereo partly drawn) [Example 52, N-[(3R,4R)-1-[7-(ethylamino)-5-fluoro-3-methyl-2-oxo-indolin-3-yl]-4-phenyl-3-piperidyl]acetamide]	0.020 µg/mL
CCNc1cc(F)cc2c1NC(=O)C2(C)N1CCC[C@@H](Oc2ccc(O)c(C=O)c2)C1 (stereo partly drawn) [Example 2, 5-[[(3R)-1-[7-(ethylamino)-5-fluoro-3-methyl-2-oxo-indolin-3-yl]-3-piperidyl]oxy]-2-hydroxy-benzaldehyde]	0.015 µg/mL
CCNc1cc(F)cc2c1NC(=O)C2(C)N1CCC[C@@H](NC(=O)C2CC3(C2)CN(C(=O)CCl)C3)C1 (stereo partly drawn) [Example 40, 2-(2-chloroacetyl)-N-[(3R)-1-[7-(ethylamino)-5-fluoro-3-methyl-2-oxo-indolin-3-yl]-3-piperidyl]-2-azaspiro[3.3]heptane-6-carboxamide]	0.017 µg/mL
CCNc1cc(F)cc2c1NC(=O)C2(C)N1CCC[C@@H](N(C)c2ccc(C(N)=O)nc2)C1 (stereo partly drawn) [Example 24, 5-[[(3R)-1-[7-(ethylamino)-5-fluoro-3-methyl-2-oxo-indolin-3-yl]-3-piperidyl]-methyl-amino]pyridine-2-carboxamide]	0.016 µg/mL
CCNc1cc(F)cc2c1NC(=O)[C@]2(C)N1CCC[C@@H](Oc2ccc(S(=O)(=O)F)cc2)C1 [Example 3A, 4-[[(3R)-1-[(3R)-7-(ethylamino)-5-fluoro-3-methyl-2-oxo-indolin-3-yl]-3-piperidyl]oxy]benzenesulfonyl fluoride]	0.036 µg/mL
CCNc1cc(F)cc2c1NC(=O)C2(C)N1CCC[C@@H](Nc2ccc(S(=O)(=O)F)c(OC)c2)C1 (stereo partly drawn) [Example 28, 4-[[(3R)-1-[7-(ethylamino)-5-fluoro-3-methyl-2-oxo-indolin-3-yl]-3-piperidyl]amino]-2-methoxy-benzenesulfonyl fluoride]	0.032 µg/mL
CCNc1cc(F)cc2c1NC(=O)C2(CC)N1CC[C@H](F)[C@@H](Nc2ccc(C#N)nc2)C1 (stereo partly drawn) [Example 49, 5-[[(3S,4S)-1-[3-ethyl-7-(ethylamino)-5-fluoro-2-oxo-indolin-3-yl]-4-fluoro-3-piperidyl]amino]pyridine-2-carbonitrile]	0.007 µg/mL
CCNc1cc(F)cc2c1NC(=O)C2(C)N1CCC[C@@H](Nc2ccc(S(C)(=O)=O)nc2)C1 (stereo partly drawn) [Example 20, 7-(ethylamino)-5-fluoro-3-methyl-3-[(3R)-3-[(6-methylsulfonyl-3-pyridyl)amino]-1-piperidyl]indolin-2-one]	0.038 µg/mL
CCNc1cc(F)cc2c1NC(=O)C2(C)N1CCC[C@@H](Nc2cnc(C#N)cn2)C1 (stereo partly drawn) [Example 15, 5-[[(3R)-1-[7-(ethylamino)-5-fluoro-3-methyl-2-oxo-indolin-3-yl]-3-piperidyl]amino]pyrazine-2-carbonitrile]	0.060 µg/mL
CCNc1cc(F)cc2c1NC(=O)C2(C)N1CCC[C@@H](Nc2cccc(OS(=O)(=O)F)c2)C1 (stereo partly drawn) [Example 31, 7-(ethylamino)-5-fluoro-3-methyl-2-oxo-3-[(3R)-3-(3-fluorosulfonyloxyanilino)-1-piperidyl]indoline]	0.197 µg/mL
CCNc1cc(F)cc2c1NC(=O)C2(C)N1CCC[C@@H](NC(=O)c2ccc(S(=O)(=O)F)cc2)C1 (stereo partly drawn) [Example 43, 4-[[(3R)-1-[7-(ethylamino)-5-fluoro-3-methyl-2-oxo-indolin-3-yl]-3-piperidyl]carbamoyl]benzenesulfonyl fluoride]	0.016 µg/mL
CCNc1cc(F)cc2c1NC(=O)C2(C)N1CC[C@H](c2ccccc2Oc2ccc(C(=O)O)cc2)[C@@H](NC(C)=O)C1 (stereo partly drawn) [Example 56, 4-[2-[(3R,4R)-3-acetamido-1-[7-(ethylamino)-5-fluoro-3-methyl-2-oxo-indolin-3-yl]-4-piperidyl]phenoxy]benzoic acid]	0.005 µg/mL

Same assay, conditions: 1 nM PDHK1, 25 nM PDHE1, 20 μM ATP, 30° C. for 45 minutes; read-out: Enzymatic IC50 against PDHK1 (converted)

Compound	IC50
CCNc1cc(F)cc2c1NC(=O)[C@@]2(C)N1CC[C@@H](c2ccccc2)[C@@H](C(=O)NC)C1 [Example 60B, (3R,4R)-1-[(3S)-7-(ethylamino)-5-fluoro-3-methyl-2-oxo-indolin-3-yl]-N-methyl-4-phenyl-piperidine-3-carboxamide]	21.2 nM
CCNc1cc(F)cc2c1NC(=O)C2(C)N1CCC[C@@H](Cc2ccc(C#N)cc2)C1 (stereo partly drawn) [Example 7, 4-[[(3S)-1-[7-(ethylamino)-5-fluoro-3-methyl-2-oxo-indolin-3-yl]-3-piperidyl]methyl]benzonitrile]	379 nM
CCNc1cc(F)cc2c1NC(=O)[C@@]2(C)N1CCC[C@@H](Oc2ccc(C(=O)O)c(Cl)c2)C1 [Example 1B, 2-chloro-4-[[(3R)-1-[(3S)-7-(ethylamino)-5-fluoro-3-methyl-2-oxo-indolin-3-yl]-3-piperidyl]oxy]benzoic acid]	15.2 nM
CCNc1cc(F)cc2c1NC(=O)[C@@]2(C)N1CCC[C@@H](Oc2ccc(S(=O)(=O)F)c(OC)c2)C1 [Example 4B, 4-[[(3R)-1-[(3S)-7-(ethylamino)-5-fluoro-3-methyl-2-oxo-indolin-3-yl]-3-piperidyl]oxy]-2-methoxy-benzenesulfonyl fluoride]	109 nM
